The values below come from paper PMC10142799, “Synthesis, In Silico and In Vitro Characterization of Novel N,N-Substituted Pyrazolopyrimidine Acetamide Derivatives for the 18KDa Translocator Protein (TSPO)” (Pharmaceuticals, 2023).

Series [1] concerns the target T1, TSPO (Homo sapiens, UniProt P30536).
T1 construct: from tissue; host or cells: isolated human leukocytes (membranes)
Put plainly: In vitro TSPO binding assay, competition with [3H]PK11195 in membrane of human leukocytes.

Series [2] can be described thus: In vitro cytotoxicity (MTT assay) on L-929 cells. In kind it is cell-based, mouse. Particulars: mouse, L-929 mouse fibroblast cells, L-929, 24 h, MTT, read-out: Cell viability. The method, then: (§1) Five concentrations of each compound dissolved in 2% of DMSO in culture media (50 μL) were introduced into cell media (96-well plate). The cell cultures treated with ligands were incubated 24 h, and then the media were removed. The cell crudes were measured at 570 nm and 650 nm using a MTT reagent. All procedures and reagents followed ISO 10993-5 and ISO 10993-12.
(§2) 929, mouse fibroblast cells) were cultured in a 96 well plate and treated with 50 […]
(§3) concentration. After incubation at 37 ° C for 24 hours under CO […]
(§4) fluid, the treated culture medium was removed and the absorbance of each samples were measured at 570 and 650 nm using MTT reagent.
(§5) Blank was administered with only 50uL of cell incubation media. As a control, a 50 […]
(§6) n media was administered.
(§7) MTT assay followed ISO 10993 […]
(§8) values of cell viability for GMA 10, GMA 11, GMA 15, DPA
On the technique in general: Formazan colour is commonly taken as a measure of viable cells.

Series [3] relates to L-929 (mouse fibroblast cells). Put plainly: In vitro cytotoxicity (MTT assay) on L-929 cells. In kind it is cell-based. To be noted: Mus musculus, read-out: IC50 values of cell viability. The method, then: as §1, §2, §3, §4, §5, §6, §7, §8
Setting [4] is: L929, L-929, 24 h, MTT, same values given in μM.

Each structure is given as a SMILES string. Several values for one entry are separate records, joined by “and”; a condition that tells them apart may be missing. Equal entries are not always repeated. Where two headings read alike, the source gives them in different places.

T1 sequence (P30536 whole entry): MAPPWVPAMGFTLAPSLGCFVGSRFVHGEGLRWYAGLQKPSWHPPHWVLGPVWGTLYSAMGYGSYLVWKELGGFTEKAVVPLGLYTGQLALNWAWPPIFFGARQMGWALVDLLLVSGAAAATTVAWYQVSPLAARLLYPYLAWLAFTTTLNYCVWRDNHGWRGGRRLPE

For `CCN(CC)C(=O)Cc1c(-c2ccc(OCCF)cc2)nn2c(C)cc(C)nc12` [DPA-714, reference compound], in series [1], the affinity, expressed as Ki, was 3.66 nM. In series [2], the viability (usually a per cent measure of how many cells are alive, often set against a control) at 24 h, 3.125 μg/mL is 51 ± 4.08%; the viability at 24 h, 6.25 μg/mL worked out at 47.3 ± 3.44%; the viability at 24 h, 12.5 μg/mL was 45.2 ± 1.86%; the viability at 24 h, 25 μg/mL stood at 32.1 ± 2.54%. Besides, in series [2], the viability at 24 h, 50 μg/mL is 11.2 ± 1.94%. In addition, the IC50 (in general, the concentration needed to halve the response being measured) in series [3] (L929, L-929, 24 h, MTT) stood at 18.6 µg/mL. Also, the IC50 in series [3] (setting [4]) stood at 46.7 µM.

`CCc1cc(CC)n2nc(-c3ccc(F)cc3)c(CC(=O)N(C)CC)c2n1` [GMA 7, 2-(5,7-diethyl-2-(4-fluorophenyl)pyrazolo [1,5-a]pyrimidin-3-yl)-N-ethyl-N-methylacetamide]: the Ki (commonly a dissociation constant, usually derived from enzyme kinetics or from competition with a known ligand) in series [1] was determined as 17.1 nM.

In series [1], `CCc1cc(CC)n2nc(-c3ccc(F)cc3)c(CC(=O)N(CC)CC)c2n1` [GMA 8, 2-(5,7-diethyl-2-(4-fluorophenyl)pyrazolo [1,5-a]pyrimidin-3-yl)-N,N-diethylacetamide] came in with a Ki of 8.79 nM.

Take `CCc1cc(CC)n2nc(-c3ccc(F)cc3)c(CC(=O)N(CC)C(C)C)c2n1` [GMA 9, 2-(5,7-Diethyl-2-(4-fluorophenyl)pyrazolo [1,5-a]pyrimidin-3-yl)-N-ethyl-N-isopropyl acetamide]: the Ki in series [1] was 13.3 nM.

In turn, `CCCN(CCC)C(=O)Cc1c(-c2ccc(F)cc2)nn2c(CC)cc(CC)nc12` [GMA 10, 2-(5,7-diethyl-2-(4-fluorophenyl)pyrazolo [1,5-a]pyrimidin-3-yl)-N,N-dipropylacetamide] had a Ki in series [1] of 0.18 nM. In addition, in series [2], the viability at 24 h, 3.125 μg/mL was 64.5 ± 1.19%; the viability at 24 h, 6.25 μg/mL is 53.4 ± 2.02%; the viability at 24 h, 12.5 μg/mL turned out to be 39.8 ± 0.74%; the viability at 24 h, 25 μg/mL was 24.6 ± 3.13%. In addition, the viability at 24 h, 50 μg/mL in series [2] worked out at 19.8 ± 1.19%. Besides, the half-inhibitory concentration (IC50) in series [3] (L929, L-929, 24 h, MTT) turned out to be 15.2 µg/mL. Besides, the IC50 in series [3] (setting [4]) is 37.1 µM.

The compound `CCc1cc(CC)n2nc(-c3ccc(F)cc3)c(CC(=O)N(CC)CCOC)c2n1` [GMA 11, 2-(5,7-diethyl-2-(4-fluorophenyl)pyrazolo [1,5-a]pyrimidin-3-yl)-N-ethyl-N-(2-methoxyethyl) acetamide] yielded a Ki in series [1] of 0.19 nM. Besides, in series [2], the viability at 24 h, 3.125 μg/mL was 61.7 ± 0.71%; the viability at 24 h, 6.25 μg/mL turned out to be 58.3 ± 3.12%; the viability at 24 h, 12.5 μg/mL came to 39.5 ± 0.63%; the viability at 24 h, 25 μg/mL turned out to be 33.5 ± 2.28%. The viability at 24 h, 50 μg/mL in series [2] came to 28.9 ± 1.12%. Besides, the IC50 in series [3] (L929, L-929, 24 h, MTT) turned out to be 36.2 µg/mL. The IC50 in series [3] (setting [4]) was determined as 87.8 µM.

`CCc1cc(CC)n2nc(-c3ccc(F)cc3)c(CC(=O)N(CCOC)CCOC)c2n1` [GMA 12, 2-(5,7-Diethyl-2-(4-fluorophenyl)pyrazolo [1,5-a]pyrimidin-3-yl)-N,N-bis(2-methoxyethyl) acetamide]: the Ki in series [1] turned out to be 25.4 nM.

In the case of `C#CCN(CC#C)C(=O)Cc1c(-c2ccc(F)cc2)nn2c(CC)cc(CC)nc12` [GMA 13, 2-(5,7-diethyl-2-(4-fluorophenyl)pyrazolo [1,5-a]pyrimidin-3-yl)-N,N-di(prop-2-yn-1-yl) acetamide], in series [1], the affinity, expressed as Ki, was 0.9 nM. This Ki is about 28-fold lower than that of the compound before.

The compound `CCc1cc(CC)n2nc(-c3ccc(F)cc3)c(CC(=O)N(CC)c3ccccc3)c2n1` [GMA 15, 2-(5,7-diethyl-2-(4-fluorophenyl)pyrazolo [1,5-a]pyrimidin-3-yl)-N-ethyl-N-phenylacetamide] showed a Ki in series [1] of 0.06 nM. For the same compound, in series [1] (ratio of Ki values), the “fold enhancement in affinity compared to DPA-714” value stood at 61 fold and the “fold higher affinity compared to PK11195” value came to 22 fold. In addition, in series [2], the viability at 24 h, 3.125 μg/mL came out at 57.9 ± 4.04%; the viability at 24 h, 6.25 μg/mL was found to be 50.6 ± 2.39%; the viability at 24 h, 12.5 μg/mL turned out to be 26 ± 8.01%; the viability at 24 h, 25 μg/mL was 9.6 ± 1.6%. Besides, in series [2], the viability at 24 h, 50 μg/mL was 6.6 ± 2.15%. The IC50 in series [3] (L929, L-929, 24 h, MTT) is 9.73 µg/mL. In addition, in series [3] (setting [4]), the IC50 came out at 22.6 µM.

The compound `CCc1cc(CC)n2nc(-c3ccc(F)cc3)c(CC(=O)N(CC)Cc3ccccc3OC)c2n1` [GMA 16, 2-(5,7-diethyl-2-(4-fluorophenyl)pyrazolo [1,5-a]pyrimidin-3-yl)-N-ethyl-N-(2-methoxybenzyl)acetamide] came in with a Ki in series [1] of 0.49 nM.

As to `CCc1cc(CC)n2nc(-c3ccc(F)cc3)c(CC(=O)N(CC)Cc3cc(OC)ccc3OC)c2n1` [GMA 17, 2-(5,7-diethyl-2-(4-fluorophenyl)pyrazolo [1,5-a]pyrimidin-3-yl)-N-(2,5-dimethoxybenzyl)-N-ethylacetamide], the Ki in series [1] came to 0.54 nM.

With `CCC(C)N(C)C(=O)c1cc2ccccc2c(-c2ccccc2Cl)n1` (centres unmarked) [PK11195, reference compound], in series [2], the viability at 24 h, 3.125 μg/mL is 57.8 ± 5.22%; the viability at 24 h, 6.25 μg/mL stood at 49.08 ± 0.43%; the viability at 24 h, 12.5 μg/mL worked out at 48.18 ± 0.43%; the viability at 24 h, 25 μg/mL amounted to 38.3 ± 4.8%. The viability at 24 h, 50 μg/mL in series [2] came out at 32.8 ± 3.14%. Further, the IC50 in series [3] (L929, 24 h) is 22.1 µg/mL and 62.7 µM.
